{"source": "patent US9546164B2", "about": "(GENENTECH, INC., priority 2013, dated 2017)", "target": "hNav1.7 (Homo sapiens (Human), UniProt Q15858)", "sequence (Q15858 other isoform, or with tags, fused parts or gaps)": "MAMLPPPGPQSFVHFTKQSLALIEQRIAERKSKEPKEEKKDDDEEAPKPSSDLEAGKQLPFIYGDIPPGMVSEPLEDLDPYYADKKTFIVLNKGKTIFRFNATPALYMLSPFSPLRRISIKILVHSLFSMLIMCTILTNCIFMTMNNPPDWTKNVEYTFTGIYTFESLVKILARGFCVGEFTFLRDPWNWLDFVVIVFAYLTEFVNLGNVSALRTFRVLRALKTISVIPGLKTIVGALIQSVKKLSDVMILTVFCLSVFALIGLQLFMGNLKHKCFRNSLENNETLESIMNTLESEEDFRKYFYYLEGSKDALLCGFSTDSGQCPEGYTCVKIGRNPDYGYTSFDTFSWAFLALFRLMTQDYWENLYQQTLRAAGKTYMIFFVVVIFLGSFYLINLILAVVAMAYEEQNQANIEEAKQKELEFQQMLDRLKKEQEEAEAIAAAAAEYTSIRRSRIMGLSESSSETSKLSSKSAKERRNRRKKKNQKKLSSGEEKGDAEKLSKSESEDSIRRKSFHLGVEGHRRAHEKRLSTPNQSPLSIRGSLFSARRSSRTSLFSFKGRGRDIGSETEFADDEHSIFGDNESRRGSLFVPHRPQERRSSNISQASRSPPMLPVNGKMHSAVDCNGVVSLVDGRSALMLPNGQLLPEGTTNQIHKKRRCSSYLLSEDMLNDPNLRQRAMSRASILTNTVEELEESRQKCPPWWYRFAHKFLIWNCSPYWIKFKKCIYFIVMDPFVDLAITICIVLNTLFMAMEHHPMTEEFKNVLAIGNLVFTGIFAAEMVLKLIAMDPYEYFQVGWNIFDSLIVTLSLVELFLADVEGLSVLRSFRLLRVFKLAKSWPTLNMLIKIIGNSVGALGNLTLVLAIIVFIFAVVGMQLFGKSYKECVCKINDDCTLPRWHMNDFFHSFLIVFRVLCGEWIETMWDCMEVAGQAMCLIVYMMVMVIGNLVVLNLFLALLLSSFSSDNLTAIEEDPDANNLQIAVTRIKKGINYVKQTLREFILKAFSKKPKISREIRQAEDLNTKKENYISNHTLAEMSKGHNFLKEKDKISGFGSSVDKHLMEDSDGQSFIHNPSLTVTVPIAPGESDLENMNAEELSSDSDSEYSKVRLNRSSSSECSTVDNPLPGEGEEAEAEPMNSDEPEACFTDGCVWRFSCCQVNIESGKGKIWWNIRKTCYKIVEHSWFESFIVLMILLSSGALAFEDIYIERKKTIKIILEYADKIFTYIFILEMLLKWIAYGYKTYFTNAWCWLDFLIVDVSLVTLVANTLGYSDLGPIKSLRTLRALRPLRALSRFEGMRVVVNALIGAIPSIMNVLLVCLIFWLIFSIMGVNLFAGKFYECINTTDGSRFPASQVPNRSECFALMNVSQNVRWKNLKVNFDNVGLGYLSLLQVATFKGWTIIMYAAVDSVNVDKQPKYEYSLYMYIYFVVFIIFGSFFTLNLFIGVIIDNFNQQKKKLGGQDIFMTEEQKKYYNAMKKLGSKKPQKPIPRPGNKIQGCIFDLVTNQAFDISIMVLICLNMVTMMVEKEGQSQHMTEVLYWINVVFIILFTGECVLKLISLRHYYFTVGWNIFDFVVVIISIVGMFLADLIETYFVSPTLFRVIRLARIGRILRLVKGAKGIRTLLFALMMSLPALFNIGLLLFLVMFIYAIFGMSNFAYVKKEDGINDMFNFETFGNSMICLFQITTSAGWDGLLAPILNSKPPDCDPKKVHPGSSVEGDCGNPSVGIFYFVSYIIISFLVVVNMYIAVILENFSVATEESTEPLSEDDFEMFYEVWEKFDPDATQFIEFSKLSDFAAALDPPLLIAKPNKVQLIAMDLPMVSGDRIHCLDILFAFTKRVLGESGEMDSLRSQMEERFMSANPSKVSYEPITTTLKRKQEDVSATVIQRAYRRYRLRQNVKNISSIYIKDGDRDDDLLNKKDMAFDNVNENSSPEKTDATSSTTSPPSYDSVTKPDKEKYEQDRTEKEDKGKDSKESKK", "sequence (Q07699 19-218 partner)": "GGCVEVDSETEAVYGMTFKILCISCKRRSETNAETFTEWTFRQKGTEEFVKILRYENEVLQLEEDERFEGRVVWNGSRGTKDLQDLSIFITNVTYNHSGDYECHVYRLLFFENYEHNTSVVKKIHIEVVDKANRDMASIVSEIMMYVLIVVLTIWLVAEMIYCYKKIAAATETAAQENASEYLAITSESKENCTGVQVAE", "assay": "Tritiated sulfonamide competitive binding to membranes from cells expressing hNav1.7 and the β1 subunit;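 also: Filter-bound radioactivity counted by liquid scintillation, nonspecific binding defined with excess unlabelled ligand, IC50 fitted to percent inhibition of specific binding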", "conditions": "read-out: Ligand Binding Assay; 100 pM [3H]compound, membranes with hNav1.7 and β1 subunit, 18 h, room temperature", "note": "Where a name gives a salt, the structure may show the parent alone.", "data": [{"compound": "CS(=O)(=O)NC(=O)c1cc(C2CC2)c(OC[C@@H]2C[C@H]3CC[C@@H](C2)N3Cc2cc(C(F)(F)F)ccc2Cl)cc1F", "note": "[Example 399, 4-(((1R,3S,5S)-8-(2-chloro-5-(trifluoromethyl)benzyl)-8-azabicyclo[3.2.1]octan-3-yl)methoxy)-5-cyclopropyl-2-fluoro-N-(methylsulfonyl)benzamide, trifluoroacetic acid salt]", "values": [{"measurement": "IC50", "value": 4.6, "unit": "nM"}]}, {"compound": "O=C(NS(=O)(=O)C1CC1)c1cc(C2CC2)c(OCC2CCN(C(c3ccc(Cl)cc3)c3ccc(Cl)cc3)CC2)cc1F", "note": "[Example 400, 4-((1-(bis(4-chlorophenyl)methyl)piperidin-4-yl)methoxy)-5-cyclopropyl-N-(cyclopropylsulfonyl)-2-fluorobenzamide, trifluoroacetic acid salt]", "values": [{"measurement": "IC50", "value": 2.1, "unit": "nM"}]}, {"compound": "O=C(NS(=O)(=O)C1CC1)c1cc(C2CC2)c(OCC2CCN(C(c3cccc(Cl)c3)c3cccc(Cl)c3)CC2)cc1F", "note": "[Example 401, 4-((1-(bis(3-chlorophenyl)methyl)piperidin-4-yl)methoxy)-5-cyclopropyl-N-(cyclopropylsulfonyl)-2-fluorobenzamide, trifluoroacetic acid salt]", "values": [{"measurement": "IC50", "value": 3.1, "unit": "nM"}]}, {"compound": "C[C@@H](c1cc(Cl)cc(Cl)c1)N1CCC(COc2cc(F)c(C(=O)NS(C)(=O)=O)cc2Cl)CC1", "note": "[Example 402, (S)-5-chloro-4-((1-(1-(3,5-dichlorophenyl)ethyl)piperidin-4-yl)methoxy)-2-fluoro-N-(methylsulfonyl)benzamide, trifluoroacetic acid salt]", "values": [{"measurement": "IC50", "value": 22.4, "unit": "nM"}]}, {"compound": "C[C@@H](c1cc(Cl)cc(Cl)c1)N1CCC(COc2cc(F)c(C(=O)NS(=O)(=O)C3CC3)cc2Cl)CC1", "note": "[Example 403, (S)-5-chloro-N-(cyclopropylsulfonyl)-4-((1-(1-(3,5-dichlorophenyl)ethyl)piperidin-4-yl)methoxy)-2-fluorobenzamide, trifluoroacetic acid salt]", "values": [{"measurement": "IC50", "value": 17, "unit": "nM"}]}, {"compound": "C[C@H](c1cc(Cl)cc(Cl)c1)N1CCC(COc2cc(F)c(C(=O)NS(C)(=O)=O)cc2Cl)CC1", "note": "[Example 404, (R)-5-chloro-4-((1-(1-(3,5-dichlorophenyl)ethyl)piperidin-4-yl)methoxy)-2-fluoro-N-(methylsulfonyl)benzamide, trifluoroacetic acid]", "values": [{"measurement": "IC50", "value": 20.1, "unit": "nM"}]}, {"compound": "C[C@H](c1cc(Cl)cc(Cl)c1)N1CCC(COc2cc(F)c(C(=O)NS(=O)(=O)C3CC3)cc2Cl)CC1", "note": "[Example 405, (R)-5-chloro-N-(cyclopropylsulfonyl)-4-((1-(1-(3,5-dichlorophenyl)ethyl)piperidin-4-yl)methoxy)-2-fluorobenzamide, trifluoroacetic acid salt]", "values": [{"measurement": "IC50", "value": 15, "unit": "nM"}]}, {"compound": "CS(=O)(=O)NC(=O)c1cc(Cl)c(OCC2CCN(Cc3cc(Cl)cc(OC(F)(F)F)c3)CC2)cc1F", "note": "[Example 406, 5-chloro-4-((1-(3-chloro-5-(trifluoromethoxy)benzyl)piperidin-4-yl)methoxy)-2-fluoro-N-(methylsulfonyl)benzamide, trifluoroacetic acid salt]", "values": [{"measurement": "IC50", "value": 17.6, "unit": "nM"}]}, {"compound": "O=C(NS(=O)(=O)C1CC1)c1cc(Cl)c(OCC2CCN(Cc3cc(Cl)cc(OC(F)(F)F)c3)CC2)cc1F", "note": "[Example 407, 5-chloro-4-((1-(3-chloro-5-(trifluoromethoxy)benzyl)piperidin-4-yl)methoxy)-N-(cyclopropylsulfonyl)-2-fluorobenzamide, trifluoroacetic acid salt]", "values": [{"measurement": "IC50", "value": 6.7, "unit": "nM"}]}, {"compound": "O=C(NS(=O)(=O)N1CCC1)c1cc(Cl)c(OCC2CCN(Cc3cc(Cl)cc(OC(F)(F)F)c3)CC2)cc1F", "note": "[Example 408, N-(azetidin-1-ylfulfonyl)-5-chloro-4-((1-(3-chloro-5-(trifluoromethoxy)benzyl)piperidin-4-yl)methoxy)-2-fluorobenzamide, trifluoroacetic acid suit]", "values": [{"measurement": "IC50", "value": 22.7, "unit": "nM"}]}, {"compound": "N#Cc1cc(C(=O)NS(=O)(=O)C2CC2)c(F)cc1OCC1CCN(Cc2cc(Cl)cc(OC(F)(F)F)c2)CC1", "note": "[Example 409, 4-((1-(3-chloro-5-(trifluoromethoxy)benzyl)piperidin-4-yl)methoxy)-5-cyano-N-(cyclopropylsulfonyl)-2-fluorobenzamide, trifluoroacetic acid salt]", "values": [{"measurement": "IC50", "value": 54, "unit": "nM"}]}, {"compound": "CS(=O)(=O)NC(=O)c1cc(C2CC2)c(OCC2CCN(Cc3nc(-c4ccccc4Cl)no3)CC2)cc1F", "note": "[Example 410, 4-((1-((3-(2-chlorophenyl)-1,2,4-oxadiazol-5-yl)methyl)piperidin-4-yl)methoxy)-5-cyclopropyl-2-fluoro-N-(methylsulfonyl)benzamide, trifluoroacetic acid salt]", "values": [{"measurement": "IC50", "value": 10.9, "unit": "nM"}]}, {"compound": "O=C(NS(=O)(=O)C1CC1)c1cc(C2CC2)c(OCC2CCN(C(c3ccccc3)c3cc(Cl)cc(Cl)c3)CC2)cc1F", "note": "(stereo not drawn) [Example 411, 5-cyclopropyl-N-(cyclopropylsulfonyl)-4-((1-((3,5-dichlorophenyl)(phenyl)methyl)piperidin-4-yl)methoxy)-2-fluorobenzamide, trifluoroacetic acid salt]", "values": [{"measurement": "IC50", "value": 0.8, "unit": "nM"}]}, {"compound": "CS(=O)(=O)NC(=O)c1cc(C2CC2)c(OCC2CCN(C(c3ccccc3)c3cc(Cl)cc(Cl)c3)CC2)cc1F", "note": "(stereo not drawn) [Example 412, 5-cyclopropyl-4-((1-((3,5-dichlorophenyl)(phenyl)methyl)piperidin-4-yl)methoxy)-2-fluoro-N-(methylsulfonyl)benzamide, trifluoroacetic acid salt]", "values": [{"measurement": "IC50", "value": 1.5, "unit": "nM"}]}, {"compound": "CS(=O)(=O)NC(=O)c1cc(C2CC2)c(OCC2CCN(Cc3ccc(Br)cc3Cl)CC2)cc1F", "note": "[Example 413, 4-((1-(4-bromo-2-chlorobenzyl)piperidin-4-yl)methoxy-5-cyclopropyl-2-fluoro-N-(methylsulfonyl)benzamide, trifluoroacetic acid salt]", "values": [{"measurement": "IC50", "value": 6, "unit": "nM"}]}, {"compound": "O=C(NS(=O)(=O)C1CC1)c1cc(C2CC2)c(OCC2CCN(Cc3ccc(Br)cc3Cl)CC2)cc1F", "note": "[Example 414, 4-((1-(4-bromo-2-chlorobenzyl)piperidin-4-yl)methoxy)-5-cyclopropyl-N-(cyclopropylsulfonyl)-2-fluorobenzamide, trifluoroacetic acid salt]", "values": [{"measurement": "IC50", "value": 3.8, "unit": "nM"}]}, {"compound": "CS(=O)(=O)NC(=O)c1cc(C2CC2)c(OCC2CCN(Cc3ccc(C4CC4)cc3Cl)CC2)cc1F", "note": "[Example 415, 4-((1-(2-chloro-4-cyclopropylbenzyl)piperidin-4-yl)methoxy)-5-cyclopropyl-2-fluoro-N-(methylsulfonyl)benzamide, trifluoroacetic acid salt]", "values": [{"measurement": "IC50", "value": 6.1, "unit": "nM"}]}, {"compound": "O=C(NS(=O)(=O)C1CC1)c1cc(C2CC2)c(OCC2CCN(Cc3ccc(C4CC4)cc3Cl)CC2)cc1F", "note": "[Example 416, 4-((1-(2-chloro-4-cyclopropylbenzyl)piperidin-4-yl)methoxy)-5-cyclopropyl-N-(cyclopropylsulfonyl)-2-fluorobenzamide, trifluoroacetic acid salt]", "values": [{"measurement": "IC50", "value": 5.3, "unit": "nM"}]}, {"compound": "O=C(NS(=O)(=O)N1CCC1)c1cc(C2CC2)c(OCC2CCN(Cc3ccc(C4CC4)cc3Cl)CC2)cc1F", "note": "[Example 417, N-(azetidin-1-ylsulfonyl)-4-((1-(2-chloro-4-cyclopropylbenzyl)piperidin-4-yl)methoxy)-5-cyclopropyl-2-fluorobenzamide, trifluoroacetic acid salt]", "values": [{"measurement": "IC50", "value": 5.7, "unit": "nM"}]}, {"compound": "CS(=O)(=O)NC(=O)c1cc(C2CC2)c(OCC2CCN(C(c3ccc(F)cc3)c3ccc(F)cc3)CC2)cc1F", "note": "[Example 418, 4-((1-(bis(4-fluorophenyl)methyl)piperidin-4-yl)methoxy)-5-cyclopropyl-2-fluoro-N-(methylsulfonyl)benzamide, trifluoroacetic acid salt]", "values": [{"measurement": "IC50", "value": 3.2, "unit": "nM"}]}, {"compound": "O=C(NS(=O)(=O)N1CCC1)c1cc(C2CC2)c(OCC2CCN(C(c3ccc(F)cc3)c3ccc(F)cc3)CC2)cc1F", "note": "[Example 419, N-azetidin-1-ylsulfonyl)-4-((1-(bis(4-fluorophenyl)methyl)piperidin-4-yl)methoxy)-5-cyclopropyl-2-fluorobenzamide, trifluoroacetic acid salt]", "values": [{"measurement": "IC50", "value": 5.2, "unit": "nM"}]}, {"compound": "CC1(COc2cc(F)c(C(=O)NS(C)(=O)=O)cc2C2CC2)CN(C(c2ccccc2)c2cc(Cl)cc(Cl)c2)C1", "note": "(stereo not drawn) [Example 420, 5-cyclopropyl-4-((1-((3,5-dichlorophenyl)(phenyl)methyl)-3-methylazetidin-3-yl)methoxy)-2-fluoro-N-(methylsulfonyl)benzamide, trifluoroacetic acid salt]", "values": [{"measurement": "IC50", "value": 2.4, "unit": "nM"}]}, {"compound": "CC1(COc2cc(F)c(C(=O)NS(=O)(=O)C3CC3)cc2C2CC2)CN(C(c2ccccc2)c2cc(Cl)cc(Cl)c2)C1", "note": "(stereo not drawn) [Example 421, 5-cyclopropyl-N-(cyclopropylsulfonyl)-4-((1-((3,5-dichlorophenyl)(phenyl)methyl)-3-methylazetidin-3-yl)methoxy)-2-fluorobenzamide, trifluoroacetic acid salt]", "values": [{"measurement": "IC50", "value": 2.5, "unit": "nM"}]}, {"compound": "CS(=O)(=O)NC(=O)c1cc(C2CC2)c(O[C@@H]2CCCN(Cc3cc(Cl)cc(OC(F)(F)F)c3)C2)cc1F", "note": "[Example 422, (R)-4-((1-(3-chloro-5-(trifluoromethoxy)benzyl)piperidin-3-yl)oxy)-5-cyclopropyl-2-fluoro-N-(methylsulfonyl)benzamide, trifluoroacetic acid salt]", "values": [{"measurement": "IC50", "value": 1.3, "unit": "nM"}]}, {"compound": "Cc1ccc(CN2CCC[C@@H](Oc3cc(F)c(C(=O)NS(C)(=O)=O)cc3C3CC3)C2)c(C)c1", "note": "[Example 423, (R)-5-cyclopropyl-4-((1-(2,4-dimethylbenzyl)piperidin-3-yl)oxy)-2-fluoro-N-(methylsulfonyl)benzamide, trifluoroacetic acid salt]", "values": [{"measurement": "IC50", "value": 2.1, "unit": "nM"}]}, {"compound": "Cc1ccc(CN2CCC[C@@H](Oc3cc(F)c(C(=O)NS(C)(=O)=O)cc3C3CC3)C2)c(Cl)c1", "note": "[Example 424, (R)-4-((1-(2-chloro-4-methylbenzyl)piperidin-3-yl)oxy)-5-cyclopropyl-2-fluoro-N-(methylsulfonyl)benzamide, trifluoroacetic acid salt]", "values": [{"measurement": "IC50", "value": 2.5, "unit": "nM"}]}, {"compound": "CC(C)(C)c1ccc(CN2CCC[C@@H](Oc3cc(F)c(C(=O)NS(C)(=O)=O)cc3C3CC3)C2)cc1", "note": "[Example 425, (R)-4-((1-(4-(tert-butyl)benzyl)piperidin-3-yl)oxy)-5-cyclopropyl-2-fluoro-N-(methylsulfonyl)benzamide, trifluoroacetic acid salt]", "values": [{"measurement": "IC50", "value": 2.9, "unit": "nM"}]}]}
